Measured values from patent US20050130982A1, “Oral therapeutic or preventative drugs for pollakiuria and urinary incontinence and oral sleep inducers, containing tropolone derivatives” (Nippon Kayaku Kabushiki Kaisha, priority 2002, published 2005).
Marks after values point to notes of the source that are not given here.

Tests used:
[1] = test system: sleep-inducing symptoms (drowsiness); experiment: Observation of sleep-inducing symptoms in dogs after oral administration; type: in vivo, dog; conditions: male Beagle dogs
Procedure: Male dogs (Beagles) were orally administered with capsules filled with the test drug 1 and the symptoms were observed. The dosages were 3 mg/kg, 10 mg/kg, 30 mg/kg and 100 mg/kg.

[2] = target: T1, human serotonin 1A receptor (Homo sapiens, UniProt P08908); experiment: Serotonin 1A antagonism activity: affinity to the human serotonin 1A receptor in transfected CHO cells; type: binding; conditions: 10^−6 M test drug, 0.3 nM 8-OH-DPAT, CHO cells transfected with the human serotonin 1A receptor gene
T1 construct: expressed in transfected cells; host or cells: CHO cells
T1 sequence (P08908 1-422): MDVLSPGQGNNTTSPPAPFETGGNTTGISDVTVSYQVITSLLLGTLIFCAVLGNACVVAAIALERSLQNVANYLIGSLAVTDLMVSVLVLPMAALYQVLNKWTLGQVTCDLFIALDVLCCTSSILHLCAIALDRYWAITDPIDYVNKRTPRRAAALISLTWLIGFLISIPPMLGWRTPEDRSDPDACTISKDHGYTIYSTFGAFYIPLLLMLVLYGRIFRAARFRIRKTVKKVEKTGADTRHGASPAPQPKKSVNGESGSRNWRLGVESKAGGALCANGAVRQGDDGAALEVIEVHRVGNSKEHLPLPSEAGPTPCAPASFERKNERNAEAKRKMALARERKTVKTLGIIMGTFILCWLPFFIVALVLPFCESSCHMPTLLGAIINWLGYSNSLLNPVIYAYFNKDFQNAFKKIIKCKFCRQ
Procedure: The affinity of the test drug 1 to the human serotonin 1 A receptor was measured according to the method by Mulheron et al. (J. G. Mulheron et al., J. Biol. Chem., 269, 12954-12962 (1994)) by using the CHO cells transfected with the human serotonin 1A receptor gene.

[3] = Measurement of bioavailability by oral administration in rats; type: in vivo, rat; conditions: for Bioavailability (%): 6.25 mg/kg oral vs intravenous, ratio of AUC
Procedure: The intravenous administration group and the oral administration group consisted of 3 rats each (6 week-old male SD-IGS strain (Japan Charles River Co.)).
Each test drug was dissolved in physiological saline or ultra-pure water and administered to the rats intravenously or orally at 6.25 mg/kg. The blood samples were collected periodically and the plasma were prepared by the routine procedures. After deproteinization, the concentration of each test drug was measured by the LC/ESI(+) SRM method (liquid chromatography/electrospray-ionization (+) selected reaction monitoring method) and the bioavailability was calculated as the ratio (percent) of AUC (area under the blood concentration-time curve) of the oral administration and AUC of the intra-venous administration.

[4] = test system: rhythmic bladder contraction; experiment: Effect on the rhythmic bladder contraction of rats (inhibition of micturition reflex); type: in vivo, rat; conditions: for Inhibition rate of the rhythmic contraction frequency of the bladder (%): anesthetized SD-IGS male rats, 120 minutes following administration; for Inhibitory activity on the frequency of the rhythmic bladder contraction (in words): rats
Procedure: The inhibitory effect on the micturition reflex was evaluated by the effect on the rhythmic bladder contraction according to the method of […] et al. (Rinshyoseiri 5, 540-547 (1975)). SD-IGS strain male rats were anesthetized by intraperitonial administration of urethane (1 g/kg). After exposing the bladder of the animal through an incision of the abdomen, a small incision was made on the top of the bladder from where a rubber balloon was inserted. The balloon was attached to a polyethylene tube connecting to a three way stopcock. The rest two ways of the stopcock were connected to a syringe for infusing water to the balloon and a transducer to measure the internal pressure of the bladder. The test animal was left for a while and then water was infused into the balloon until rhythmic contraction started. The change in the internal pressure of the bladder was recorded continuously by a polygraph. Drugs were dissolved in de-ionized water and administered through a catheter inserted in the duodenum. The effect of the drug was expressed as the inhibition ratio of the frequency of the rhythmic contraction of the bladder obtained by following formula. Inhibition rate (%)=100-{the frequency of the rhythmic contraction during 120 minutes following the administration (converted to the frequency per unit time)/the frequency of the rhythmic contraction 20 minutes immediately before the administration (converted to the frequency per unit time)×100}

[5] = Hygroscopic evaluation at 75% relative humidity; type: physicochemical; conditions: for Weight change (mg) in 75% relative humidity: 50 mg sample; for Increase in weight (hygroscopicity, in words): 75% relative humidity for 26 days
Text: Fifty mg of the each test sample was weighed exactly and placed in a closed container in which the relative humidity was kept at 75% and the bottom chamber was filled with saturated brine.

[6] = oral capsule, group of more than 10 mg/kg
[7] = intra-duodenal administration of 6.25 mg/kg

Bioavailability (%) ([3]; hydrochloride, 6.25 mg/kg) | Weight change (mg) in 75% relative humidity ([5]; storage time 0 hours) [mg] | Weight change (mg) in 75% relative humidity ([5]; storage time 2 hours) [mg] | Weight change (mg) in 75% relative humidity ([5]; storage time 4 hours) [mg] | Weight change (mg) in 75% relative humidity ([5]; storage time 6 hours) [mg] | Weight change (mg) in 75% relative humidity ([5]; storage time 103 hours) [mg] | Weight change (mg) in 75% relative humidity ([5]; storage time 170 hours) [mg] | Weight change (mg) in 75% relative humidity ([5]; storage time 26 days) [mg] | Increase in weight (hygroscopicity, in words) [5] | SMILES | Inhibition rate of the rhythmic contraction frequency of the bladder (%) ([4]; 6.25 mg/kg intra-duodenal) | Inhibitory activity on the frequency of the rhythmic bladder contraction (in words) [4, 7] | Inhibition rate of the rhythmic contraction frequency of the bladder (%) ([4]; 12.5 mg/kg intra-duodenal) | also measured
57 | – | – | – | – | – | – | – | – | COc1cc(C(C)C)ccc(CN2CCN(c3ncccn3)CC2)c1=O.Cl [Test drug 1, 4-isopropyl-2-methoxy-7-[4-(2-pyrimidyl)piperazinomethyl]-2,4,6-cycloheptatrien-1-one 1 hydrochloride] | 48.89 +/− 5.43* % | marked inhibitory activity | – | Symptoms after oral administration ([1]; oral capsule, 3 mg/kg): no abnormal symptom was recognized; Drowsiness [1, 6]: drowsiness was observed; Time to drowsiness after administration [1, 6]: 20 to 30 min; Duration of drowsiness ([1]; oral, 30 mg/kg): 142 min; Duration of drowsiness ([1]; oral, 100 mg/kg): 318 min; Abnormal behavior other than drowsiness ([1]; oral, 3-100 mg/kg): No abnormal behavior other than drowsiness was observed; Drug concentration in the plasma ([1]; oral, 3-100 mg/kg): increased dose-dependently; Inhibition of the binding of 8-OH-DPAT to the human serotonin 1A receptor [2]: 77%; Plasma concentration in rats administered orally ([3]; oral 6.25 mg/kg): ~10^−6 M; Inhibition rate of the rhythmic contraction frequency of the bladder (%) ([4]; 3.13 mg/kg intra-duodenal): 43.48%
– | – | – | – | – | – | – | – | – | CC(C)c1ccc(CN2CCN(c3ccccc3)CC2)c(=O)c(OCc2ccccc2)c1.O=C(O)/C=C/C(=O)O [Control drug, 2-benzyloxy-4-isopropyl-7-[4-phenylpiperazinomethyl]-2,4,6-cycloheptatrien-1-one 1 fumarate, reference compound] | – | – | 4.81 +/− 4.09 (n = 6) % | Bioavailability (%) [3]: 6%; Inhibitory activity on the frequency of the rhythmic bladder contraction (in words) ([4]; intra-duodenal, dose of 12.5 mg/kg): did not show significant activity
– | 0.0 | 0.2 | 0.2 | 0.1 | 0.1 | 0.1 | 0.1 | No substantial increase | COc1cc(C(C)C)ccc(CN2CCN(c3ncccn3)CC2)c1=O.O=C(O)C(O)C(O)C(=O)O.O=C(O)C(O)C(O)C(=O)O [Test sample 1, 4-isopropyl-2-methoxy-7-[4-(2-pyrimidyl)piperazinomethyl]-2,4,6-cycloheptatrien-1-one 2 DL-tartrate] | – | – | – | –
31 | – | – | – | – | – | – | – | – | CC(C)c1ccc(CN2CCN(c3ncccn3)CC2)c(=O)c(O)c1.Cl [Test drug 2, 2-hydroxy-4-isopropyl-7-[4-(2-pyrimidyl)piperazinomethyl]-2,4,6-cycloheptatrien-1-one 1 hydrochloride] | 26.84 +/− 5.33 (n = 4) % | marked inhibitory activity | 59.08 +/− 3.18* (n = 3) % | –
– | 0.0 | 0.3 | 0.4 | 0.1 | 0.1 | 0.2 | 0.2 | No substantial increase | COc1cc(C(C)C)ccc(CN2CCN(c3ncccn3)CC2)c1=O.O=C(O)/C=C/C(=O)O [Test sample 2, 4-isopropyl-2-methoxy-7-[4-(2-pyrimidyl)piperazinomethyl]-2,4,6-cycloheptatrien-1-one 1 fumarate] | – | – | – | –
